Results published in ChEMBL document CHEMBL2390846, “Small-molecule pyrimidine inhibitors of the cdc2-like (Clk) and dual specificity tyrosine phosphorylation-regulated (Dyrk) kinases: development of chemical probe ML315” (Bioorg Med Chem Lett, 2013).
Values after ≈ are worked out from the molar mass of the structure shown.

Key:
[1] = Permeability of the compound in aqueous buffer at donor compartment pH 6.2 and acceptor compartment pH 7.4 by PAMPA; type: ADME
[2] = biological target: Dual specificity protein kinase CLK3 (Homo sapiens, UniProt P49761)
Sequence of Dual specificity protein kinase CLK3 (P49761 whole entry): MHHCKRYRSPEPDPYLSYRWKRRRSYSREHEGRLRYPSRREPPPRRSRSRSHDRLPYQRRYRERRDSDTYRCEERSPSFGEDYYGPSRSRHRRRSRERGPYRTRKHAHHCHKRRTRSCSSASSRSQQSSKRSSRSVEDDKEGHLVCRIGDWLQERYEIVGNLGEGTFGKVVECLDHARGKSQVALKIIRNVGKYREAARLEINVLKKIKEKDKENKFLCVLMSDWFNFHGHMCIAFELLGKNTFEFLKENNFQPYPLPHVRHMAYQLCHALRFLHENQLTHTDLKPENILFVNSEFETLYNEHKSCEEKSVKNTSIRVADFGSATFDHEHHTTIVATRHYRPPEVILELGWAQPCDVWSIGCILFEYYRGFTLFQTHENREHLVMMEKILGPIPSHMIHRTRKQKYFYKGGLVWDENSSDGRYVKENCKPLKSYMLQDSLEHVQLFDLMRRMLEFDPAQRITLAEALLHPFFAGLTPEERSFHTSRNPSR

[3] = Aqueous solubility of the compound in PBS at pH 7.4; type: physicochemical
[4] = Hepatotoxicity against human Fa2N-4 cells; type: toxicity, cell-based; conditions: read-out: LC50 (the source's name)
[5] = Plasma protein binding in human at 10 uM; type: ADME, cell-free; conditions: read-out: PPB (converted)
[6] = Plasma protein binding in human at 1 uM; type: ADME, cell-free; conditions: read-out: PPB (converted)
[7] = biological target: Dual specificity protein kinase CLK1 (Homo sapiens, UniProt P49759)
Sequence of Dual specificity protein kinase CLK1 (P49759 whole entry): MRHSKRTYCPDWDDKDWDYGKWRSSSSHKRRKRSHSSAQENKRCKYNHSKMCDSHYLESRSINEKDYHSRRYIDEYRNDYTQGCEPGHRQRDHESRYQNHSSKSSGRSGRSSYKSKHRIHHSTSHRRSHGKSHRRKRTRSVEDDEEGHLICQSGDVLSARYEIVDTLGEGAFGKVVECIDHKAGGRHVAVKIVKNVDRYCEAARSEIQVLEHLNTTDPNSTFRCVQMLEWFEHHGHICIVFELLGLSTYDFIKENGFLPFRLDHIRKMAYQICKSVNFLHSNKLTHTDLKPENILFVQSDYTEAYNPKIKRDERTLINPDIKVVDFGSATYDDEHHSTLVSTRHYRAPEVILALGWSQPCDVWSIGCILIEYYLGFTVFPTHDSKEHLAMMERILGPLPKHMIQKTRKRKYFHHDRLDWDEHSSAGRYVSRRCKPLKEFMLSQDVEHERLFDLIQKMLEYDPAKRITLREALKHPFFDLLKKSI

[8] = Plasma protein binding in mouse at 1 uM; type: ADME, cell-free; conditions: read-out: PPB (converted)
[9] = biological target: T1, Dual specificity tyrosine-phosphorylation-regulated kinase 1A (Homo sapiens, UniProt Q13627); experiment: Inhibition of DYRK1A (unknown origin) by bioluminescence assay; conditions: read-out: IC50
[10] = biological target: Dual specificity tyrosine-phosphorylation-regulated kinase 1B (Homo sapiens, UniProt Q9Y463)
Sequence of Dual specificity tyrosine-phosphorylation-regulated kinase 1B (Q9Y463 whole entry): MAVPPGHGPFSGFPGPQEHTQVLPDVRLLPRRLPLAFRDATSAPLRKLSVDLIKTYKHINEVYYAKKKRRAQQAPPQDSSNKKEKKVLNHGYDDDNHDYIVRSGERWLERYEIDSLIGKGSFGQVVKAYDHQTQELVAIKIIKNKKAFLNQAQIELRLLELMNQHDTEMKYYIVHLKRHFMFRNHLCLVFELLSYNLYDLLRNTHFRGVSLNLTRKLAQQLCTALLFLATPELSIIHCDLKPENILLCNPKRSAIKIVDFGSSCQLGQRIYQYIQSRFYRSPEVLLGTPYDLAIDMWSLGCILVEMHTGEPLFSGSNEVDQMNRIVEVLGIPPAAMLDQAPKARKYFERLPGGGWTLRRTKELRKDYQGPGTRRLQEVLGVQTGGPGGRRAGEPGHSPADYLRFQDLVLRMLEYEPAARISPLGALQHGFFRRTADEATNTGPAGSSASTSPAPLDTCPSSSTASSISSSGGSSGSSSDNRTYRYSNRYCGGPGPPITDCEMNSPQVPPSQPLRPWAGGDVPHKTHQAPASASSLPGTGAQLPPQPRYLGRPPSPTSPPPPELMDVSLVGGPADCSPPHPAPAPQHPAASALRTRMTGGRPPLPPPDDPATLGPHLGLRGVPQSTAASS

[11] = Metabolic stability in human liver microsomes assessed as compound remaining at 1 hr; type: ADME, Microsome; conditions: read-out: Stability
[12] = Permeability of the compound in aqueous buffer at donor compartment pH 7.4 and acceptor compartment pH 7.4 by PAMPA; type: ADME
[13] = Metabolic stability in mouse liver microsomes assessed as compound remaining at 1 hr; type: ADME, Microsome; conditions: read-out: Stability
[14] = biological target: T2, Dual specificity protein kinase CLK4 (Homo sapiens, UniProt Q9HAZ1)
T2 sequence (Q9HAZ1 whole entry): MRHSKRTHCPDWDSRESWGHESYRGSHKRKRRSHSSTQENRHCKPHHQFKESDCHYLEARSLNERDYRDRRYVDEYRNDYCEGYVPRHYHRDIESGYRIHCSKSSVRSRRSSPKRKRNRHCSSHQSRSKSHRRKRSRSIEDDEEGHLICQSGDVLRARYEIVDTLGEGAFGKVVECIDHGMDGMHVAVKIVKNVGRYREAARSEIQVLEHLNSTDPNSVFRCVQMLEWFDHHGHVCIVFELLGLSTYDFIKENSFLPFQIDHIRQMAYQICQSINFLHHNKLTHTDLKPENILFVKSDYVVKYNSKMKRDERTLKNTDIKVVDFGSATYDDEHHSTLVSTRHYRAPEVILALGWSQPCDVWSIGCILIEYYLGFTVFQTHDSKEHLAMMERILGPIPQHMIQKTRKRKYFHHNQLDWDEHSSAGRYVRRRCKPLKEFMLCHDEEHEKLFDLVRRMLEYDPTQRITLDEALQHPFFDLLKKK

[15] = Plasma protein binding in mouse at 10 uM; type: ADME, cell-free; conditions: read-out: PPB (converted)
[16] = biological target: Dual specificity protein kinase CLK2 (Homo sapiens, UniProt P49760)
Sequence of Dual specificity protein kinase CLK2 (P49760 whole entry): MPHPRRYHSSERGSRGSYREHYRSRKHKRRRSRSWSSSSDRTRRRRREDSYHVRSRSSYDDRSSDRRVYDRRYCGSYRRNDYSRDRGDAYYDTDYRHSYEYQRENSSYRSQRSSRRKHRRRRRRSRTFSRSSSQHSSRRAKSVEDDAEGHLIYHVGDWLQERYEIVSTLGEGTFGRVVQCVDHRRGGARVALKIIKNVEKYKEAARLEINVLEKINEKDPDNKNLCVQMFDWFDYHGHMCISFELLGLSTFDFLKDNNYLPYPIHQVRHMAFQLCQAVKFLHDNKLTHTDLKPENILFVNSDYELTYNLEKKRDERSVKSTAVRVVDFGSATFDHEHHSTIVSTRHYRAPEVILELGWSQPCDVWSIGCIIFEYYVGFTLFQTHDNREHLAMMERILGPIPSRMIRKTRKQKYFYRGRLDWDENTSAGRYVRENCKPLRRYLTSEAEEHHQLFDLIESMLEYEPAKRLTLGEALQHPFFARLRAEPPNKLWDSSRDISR

hERG (KCNH2) = hERG (KCNH2) (Homo sapiens, UniProt Q12809); experiment: Inhibition of human ERG at 10 uM relative to control
Sequence of hERG (KCNH2) (Q12809 whole entry): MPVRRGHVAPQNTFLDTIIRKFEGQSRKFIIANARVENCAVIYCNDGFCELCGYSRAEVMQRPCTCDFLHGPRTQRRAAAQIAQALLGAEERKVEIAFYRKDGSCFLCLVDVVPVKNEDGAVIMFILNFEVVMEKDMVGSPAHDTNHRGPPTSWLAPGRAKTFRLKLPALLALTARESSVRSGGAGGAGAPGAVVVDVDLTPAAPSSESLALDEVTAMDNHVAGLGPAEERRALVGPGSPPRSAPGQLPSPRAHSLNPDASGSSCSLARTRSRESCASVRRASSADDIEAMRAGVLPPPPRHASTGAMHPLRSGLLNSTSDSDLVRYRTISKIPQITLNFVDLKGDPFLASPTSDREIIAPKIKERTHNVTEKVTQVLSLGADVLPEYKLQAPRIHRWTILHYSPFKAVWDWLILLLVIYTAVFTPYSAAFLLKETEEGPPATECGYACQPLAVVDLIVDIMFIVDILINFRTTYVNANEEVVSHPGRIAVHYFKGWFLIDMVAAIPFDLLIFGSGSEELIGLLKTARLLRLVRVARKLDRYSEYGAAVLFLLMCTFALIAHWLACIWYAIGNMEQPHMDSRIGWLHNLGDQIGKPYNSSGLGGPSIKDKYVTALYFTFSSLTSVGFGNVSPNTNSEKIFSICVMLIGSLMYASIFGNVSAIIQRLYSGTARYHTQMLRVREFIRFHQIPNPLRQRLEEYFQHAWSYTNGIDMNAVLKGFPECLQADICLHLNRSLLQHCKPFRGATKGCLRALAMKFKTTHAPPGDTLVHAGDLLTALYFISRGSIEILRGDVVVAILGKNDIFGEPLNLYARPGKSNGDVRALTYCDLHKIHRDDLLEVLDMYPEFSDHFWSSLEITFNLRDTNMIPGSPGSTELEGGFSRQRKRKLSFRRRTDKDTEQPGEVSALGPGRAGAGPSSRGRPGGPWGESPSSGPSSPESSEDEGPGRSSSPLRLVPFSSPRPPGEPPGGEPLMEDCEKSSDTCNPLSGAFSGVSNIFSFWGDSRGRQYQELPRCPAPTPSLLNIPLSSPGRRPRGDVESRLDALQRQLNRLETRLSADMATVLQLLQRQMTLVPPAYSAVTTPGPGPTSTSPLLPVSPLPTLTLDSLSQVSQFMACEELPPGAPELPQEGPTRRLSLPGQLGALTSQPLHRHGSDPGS

[17] = Metabolic stability in mouse plasma assessed as compound remaining at 3 hrs; type: ADME, cell-free; conditions: read-out: Stability
[18] = biological target: L-type calcium channel, benzothiazepine binding site (Rattus norvegicus, UniProt P22002+P27732+Q02485); experiment: Inhibition of rat L-type calcium channel benzothiazepine binding site at 10 uM relative to control
[19] = Metabolic stability in human plasma assessed as compound remaining at 3 hrs; type: ADME, cell-free; conditions: read-out: Stability
[20] = Solubility of the compound in assay media at pH 7.5; type: physicochemical
[21] = Permeability of the compound in aqueous buffer at donor compartment pH 5.0 and acceptor compartment pH 7.4 by PAMPA; type: ADME
[22] = biological target: T2, Dual specificity protein kinase CLK4; experiment: Inhibition of CLK4 (unknown origin) by bioluminescence assay; conditions: read-out: IC50
[23] = biological target: T1, Dual specificity tyrosine-phosphorylation-regulated kinase 1A

Clc1cc(Cl)cc(CNc2ncncc2-c2ccc3c(c2)OCO3)c1
permeability [1]: 1360 ×10⁻⁶ cm/s
IC50 [2]: > 10 µM
solubility [3]: 1.15 µM (≈ 0.43 µg/mL)
CC50 [4]: > 50 µM
fraction unbound at 10 µM [5]: 0.0022
fraction unbound at 1 µM [6]: 0.0065
IC50 [7]: 68 nM
fraction unbound at 1 µM [8]: 0.0051
IC50 [9]: 2600 nM
IC50 [10]: 1160 nM
remaining at 1 h [11]: 1.3%
permeability [12]: 1150 ×10⁻⁶ cm/s
remaining at 1 h [13]: 0.54%
IC50 [14]: 68 nM
fraction unbound at 10 µM [15]: 0.0053
IC50 [16]: 231 nM
inhibition at 10 µM (hERG (KCNH2)): 44%
remaining at 3 h [17]: 86.7%
inhibition at 10 µM [18]: 26%
remaining at 3 h [19]: 85.5%
solubility [20]: 1.71 µM (≈ 0.64 µg/mL)
permeability [21]: 2220 ×10⁻⁶ cm/s
IC50 [22]: 130 nM
IC50 [23]: 282 nM

c1cncc(CNc2nccc(-c3ccc4[nH]ncc4c3)n2)c1
IC50 [2]: 2.66 µM
IC50 [7]: 73 nM
IC50 [9]: 150 nM
IC50 [10]: 93 nM
IC50 [14]: 60 nM
IC50 [16]: 462 nM
IC50 [22]: 30 nM
IC50 [23]: 61 nM

Clc1ccc(CNc2nccc(-c3ccc4c(c3)OCCO4)n2)cc1Cl
IC50 [2]: > 10 µM
IC50 [7]: 16 nM
IC50 [9]: 210 nM
IC50 [10]: 55 nM
IC50 [14]: 13 nM
IC50 [16]: 39 nM
IC50 [22]: 120 nM
IC50 [23]: 18 nM

FC(F)(F)c1cccc(Nc2nccc(-c3ccc4c(c3)OCO4)n2)c1
IC50 [2]: > 10 µM
IC50 [7]: 34 nM
IC50 [9]: 70 nM
IC50 [10]: 18 nM
IC50 [14]: 42 nM
IC50 [16]: 52 nM
IC50 [22]: 70 nM
IC50 [23]: 10 nM

COc1ccc(-c2ccnc(NCc3ccc(Cl)cc3)n2)cc1
IC50 [7]: 277 nM
IC50 [9]: 2070 nM
IC50 [10]: 871 nM
IC50 [14]: 319 nM
IC50 [16]: 1090 nM
IC50 [22]: 290 nM
IC50 [23]: 558 nM

Clc1ccc(CNc2ncncc2-c2ccc3c(c2)OCO3)cc1Cl
IC50 [7]: 626 nM
IC50 [9]: 4120 nM
IC50 [10]: > 10000 nM
IC50 [14]: 526 nM
IC50 [16]: 1560 nM
IC50 [22]: 580 nM
IC50 [23]: 3450 nM

Clc1ccc(CNc2nccc(-c3ccc4c(c3)OCO4)n2)cc1Cl
IC50 [2]: 3.63 µM
IC50 [7]: 8 nM
IC50 [9]: 160 nM
IC50 [10]: 38 nM
IC50 [14]: 14 nM
IC50 [16]: 20 nM
IC50 [22]: 40 nM
IC50 [23]: 26 nM

Clc1ccc(CNc2nccc(-c3ccc4[nH]ncc4c3)n2)cc1Cl
IC50 [2]: 2.93 µM
IC50 [7]: 41 nM
IC50 [9]: 330 nM
IC50 [10]: 125 nM
IC50 [14]: 30 nM
IC50 [16]: 190 nM
IC50 [22]: 30 nM
IC50 [23]: 129 nM

Brc1ccc(CNc2nccc(-c3ccc4c(c3)OCO4)n2)cc1Br
IC50 [2]: 3.23 µM
IC50 [7]: 24 nM
IC50 [9]: 820 nM
IC50 [10]: 112 nM
IC50 [14]: 18 nM
IC50 [16]: 30 nM
IC50 [22]: 80 nM
IC50 [23]: 79 nM

Clc1cc(Cl)cc(CNc2nccc(-c3ccc4c(c3)OCO4)n2)c1
IC50 [2]: > 10 µM
IC50 [7]: 2 nM
IC50 [10]: 7 nM
IC50 [16]: 23 nM

c1cncc(CNc2ccnc(-c3ccc4cn[nH]c4c3)n2)c1
IC50 [7]: 1600 nM
IC50 [9]: 2070 nM
IC50 [10]: 829 nM
IC50 [14]: 1290 nM
IC50 [16]: 1900 nM
IC50 [22]: 290 nM
IC50 [23]: 1430 nM

Clc1ccc(CNc2nccc(-c3ccc4cn[nH]c4c3)n2)cc1Cl
IC50 [7]: 183 nM
IC50 [9]: 1640 nM
IC50 [10]: 599 nM
IC50 [14]: 123 nM
IC50 [16]: 429 nM
IC50 [22]: 5820 nM
IC50 [23]: 169 nM

Brc1cc(Br)cc(CNc2nccc(-c3ccc4c(c3)OCO4)n2)c1
IC50 [7]: 13 nM
IC50 [9]: 70 nM
IC50 [10]: 18 nM
IC50 [14]: 9 nM
IC50 [16]: 41 nM
IC50 [22]: 40 nM
IC50 [23]: 11 nM

Clc1ccc(CNc2ncncc2-c2ccc3c(c2)OCO3)cc1
IC50 [7]: 2370 nM
IC50 [9]: 26000 nM
IC50 [10]: 8860 nM
IC50 [14]: 9280 nM
IC50 [16]: 8790 nM
IC50 [22]: 5820 nM
IC50 [23]: 4580 nM

c1cncc(CNc2ccnc(-c3ccc4[nH]ncc4c3)n2)c1
IC50 [7]: 964 nM
IC50 [9]: 650 nM
IC50 [10]: 179 nM
IC50 [14]: 574 nM
IC50 [16]: 665 nM
IC50 [22]: 150 nM
IC50 [23]: 349 nM

c1cncc(CNc2nccc(-c3ccc4c(c3)OCO4)n2)c1
IC50 [2]: 1.47 µM
IC50 [7]: 11 nM
IC50 [9]: 40 nM
IC50 [10]: 12 nM
IC50 [14]: 16 nM
IC50 [16]: 60 nM
IC50 [22]: 20 nM
IC50 [23]: 7 nM

COc1cccc(-c2ccnc(NCc3ccc(Cl)cc3)n2)c1
IC50 [7]: > 10000 nM
IC50 [9]: 7330 nM
IC50 [10]: 6780 nM
IC50 [14]: 6810 nM
IC50 [16]: > 10000 nM
IC50 [22]: 5820 nM
IC50 [23]: 6360 nM

c1cc(-c2ccc3c(c2)OCO3)nc(Nc2ccc3c(c2)OCO3)n1
IC50 [7]: 180 nM
IC50 [9]: 130 nM
IC50 [10]: 42 nM
IC50 [14]: 75 nM
IC50 [16]: 259 nM
IC50 [22]: 120 nM
IC50 [23]: 25 nM

FC(F)(F)c1cc(Br)cc(Nc2nccc(-c3ccc4c(c3)OCO4)n2)c1
IC50 [7]: 102 nM
IC50 [9]: 520 nM
IC50 [10]: 137 nM
IC50 [14]: 86 nM
IC50 [16]: 345 nM
IC50 [22]: 130 nM
IC50 [23]: 107 nM
